Patent US20170275270A1, “BENZYL SUBSTITUTED INDAZOLES” (Bayer Pharma Aktiengesellschaft, priority 2014, published 2017)
Values joined by “and” are separate entries in the source; they are usually repeats but may differ in a detail not shown here. Equal values may be shown once. Where a name gives a salt, the structure may show the parent alone. Read-outs that look alike come from different tables or passages of the source.

Assays:
Bub1 = Bub1 (Homo sapiens, UniProt O43683); assay: Formation-Assay: phosphorylation status of histone 2A by inhibition of kinase activity of Bub1; type: cell-based; conditions: Biological Assay 4.1: H2A Formation IC50, co-treatment with Nocodazole 1 μg/ml, 16 h
Chain of Bub1 (O43683 whole entry): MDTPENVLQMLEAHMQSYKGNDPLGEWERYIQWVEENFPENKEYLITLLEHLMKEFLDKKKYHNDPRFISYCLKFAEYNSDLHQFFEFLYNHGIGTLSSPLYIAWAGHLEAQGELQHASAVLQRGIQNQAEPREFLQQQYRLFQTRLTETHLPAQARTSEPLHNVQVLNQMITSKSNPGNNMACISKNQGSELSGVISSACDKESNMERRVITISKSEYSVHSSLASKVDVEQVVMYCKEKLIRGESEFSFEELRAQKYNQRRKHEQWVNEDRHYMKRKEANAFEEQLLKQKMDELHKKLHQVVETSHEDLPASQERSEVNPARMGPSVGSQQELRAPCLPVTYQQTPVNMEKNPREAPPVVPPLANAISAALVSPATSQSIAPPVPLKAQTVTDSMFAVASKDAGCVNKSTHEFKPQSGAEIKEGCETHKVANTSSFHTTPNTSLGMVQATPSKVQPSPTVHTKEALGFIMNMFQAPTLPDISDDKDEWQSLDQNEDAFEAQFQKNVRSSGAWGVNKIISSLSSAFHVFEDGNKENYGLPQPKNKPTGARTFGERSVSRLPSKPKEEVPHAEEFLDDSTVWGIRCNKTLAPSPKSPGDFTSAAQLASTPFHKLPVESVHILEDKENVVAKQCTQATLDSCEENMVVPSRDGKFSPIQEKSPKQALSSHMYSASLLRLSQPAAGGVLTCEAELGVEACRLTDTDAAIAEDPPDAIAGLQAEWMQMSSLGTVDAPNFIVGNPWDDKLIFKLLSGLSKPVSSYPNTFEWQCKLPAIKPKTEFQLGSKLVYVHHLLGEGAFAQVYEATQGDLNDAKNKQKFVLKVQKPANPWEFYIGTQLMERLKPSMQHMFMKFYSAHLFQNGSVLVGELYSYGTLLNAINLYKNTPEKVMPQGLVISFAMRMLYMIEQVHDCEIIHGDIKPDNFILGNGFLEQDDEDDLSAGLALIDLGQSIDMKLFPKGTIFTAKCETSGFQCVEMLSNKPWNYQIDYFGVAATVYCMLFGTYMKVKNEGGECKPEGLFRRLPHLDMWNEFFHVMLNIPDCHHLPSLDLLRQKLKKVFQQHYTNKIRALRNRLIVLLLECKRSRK
Outline: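 Cells co-treated 16 h with Nocodazole (1 μg/ml) and compound (3 nM–10 μM), then fixed and immunostained for phospho-H2A, read by infrared imaging (800 nm) normalised to cell stain (700 nm). Nocodazole-only set as 100%, untreated cells as 0%.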

[1] = biological target: T1, catalytic domain of human Bub1 (amino acids 704-1085) (Homo sapiens, UniProt O43683); assay: Bub1 kinase assay (TR-FRET); type: biochemical
T1 construct: catalytic domain of human Bub1 (amino acids 704-1085); His6 (N); made in house; host or cells: Hi5 insect cells
T1 sequence (O43683 704-1085): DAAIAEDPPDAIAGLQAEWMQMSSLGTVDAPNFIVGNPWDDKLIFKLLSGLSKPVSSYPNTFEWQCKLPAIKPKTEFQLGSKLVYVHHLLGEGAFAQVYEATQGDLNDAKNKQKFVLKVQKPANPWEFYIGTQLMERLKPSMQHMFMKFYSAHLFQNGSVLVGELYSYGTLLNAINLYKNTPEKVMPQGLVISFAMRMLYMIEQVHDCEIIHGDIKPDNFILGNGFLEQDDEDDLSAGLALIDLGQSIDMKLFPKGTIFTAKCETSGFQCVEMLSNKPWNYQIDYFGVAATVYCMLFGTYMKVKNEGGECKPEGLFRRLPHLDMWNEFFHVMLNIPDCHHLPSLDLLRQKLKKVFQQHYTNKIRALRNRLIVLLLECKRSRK
Outline: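 Compounds from 2 mM DMSO stocks, serially diluted 1:3.4, incubated with enzyme at 22° C for 60 min. Stopped with EDTA, then 1 h with streptavidin-XL665, anti-phosphoserine antibody and Eu-labelled anti-mouse IgG. Phosphorylated biotin-peptide read by TR-FRET; IC50 by 4-parameter logistic fit.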

[2] = system: HeLa human cervical tumor cells; assay: Proliferation assay (HeLa+Paclitaxel); conditions: read-out: Biological Assay 3: HeLa + Paclitaxel IC50, 3 nM paclitaxel, crystal violet;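 also: compounds at 0.001-10 µM added 4 h after paclitaxel, 92 h exposure, absorbance normalized to zero-point plate (0%) and untreated cells (100%), IC50 from 4-parameter fit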
HeLa = assay: Proliferation assay (HeLa cell line);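 also: crystal violet staining of cell number, scaled between a plate stained before dosing (0%) and cells left untreated (100%), compounds tested at 0.001-10 µM, IC50 via 4-parameter fit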
[3] = Biological Assay 1: Bub1 kinase assay median IC50, 10 μM ATP
[4] = Homo sapiens, 96 h, read-out: Biological Assay 2: Proliferation assay (HeLa cell line) median IC50
[5] = 10 μM ATP, read-out: Biological Assay 1: Bub1 kinase assay median IC50

IC50 (Bub1)	IC50 [1, 3]	IC50 [2]	IC50 (HeLa; [4])	IC50 [1, 5]	IC50 (HeLa; read-out: Biological Assay 2: Proliferation assay (HeLa cell line) median IC50, 4 days, crystal violet)	Structure (SMILES)
0.57 µM	0.0063 µM	0.45 µM	3.5 µM	–	–	CCOc1cc(F)c(Cn2nc(-c3ncc(CC[S@](C)(=N)=O)c(Nc4ccncc4)n3)c3ccccc32)c(F)c1 [Example 2-7-1, 2-[1-(4-ethoxy-2,6-difluorobenzyl)-1H-indazol-3-yl]-5-[2-(S-methylsulfonimidoyl)ethyl]-N-(pyridin-4-yl)pyrimidin-4-amine]
1.6 µM	–	0.36 µM	1.1 µM	0.0088 µM	–	CCOc1cc(F)c(Cn2nc(-c3ncc(CCN)c(Nc4ccncc4)n3)c3ccccc32)c(F)c1 [Example 2-9-2, 5-(2-aminoethyl)-2-[1-(4-ethoxy-2,6-difluorobenzyl)-1H-indazol-3-yl]-N-(pyridin-4-yl)pyrimidin-4-amine]
> 3 µM and 4.9 µM	0.0058 µM	0.24 µM	–	–	1.1 µM	CCOc1cc(F)c(Cn2nc(-c3ncc(C4CCNCC4)c(Nc4ccncc4)n3)c3ccccc32)c(F)c1 [Example 2-9-3, 2-[1-(4-ethoxy-2,6-difluorobenzyl)-1H-indazol-3-yl]-5-(piperidin-4-yl)-N-(pyridin-4-yl)pyrimidin-4-amine, salt with hydrochloric acid]
0.44 µM	–	0.42 µM	1.9 µM	0.0078 µM	–	CCOc1cc(F)c(Cn2nc(-c3ncc(CC4CNC4)c(Nc4ccncc4)n3)c3ccccc32)c(F)c1 [Example 2-9-4, 5-(azetidin-3-ylmethyl)-2-[1-(4-ethoxy-2,6-difluorobenzyl)-1H-indazol-3-yl]-N-(pyridin-4-yl)pyrimidin-4-amine, salt with hydrochloric acid]
0.0018 µM	–	0.34 µM	1.8 µM	0.014 µM	–	CCOc1cc(F)c(Cn2nc(-c3ncc(CN)c(Nc4ccncc4)n3)c3ccccc32)c(F)c1 [Example 2-9-5, 5-(aminomethyl)-2-[1-(4-ethoxy-2,6-difluorobenzyl)-1H-indazol-3-yl]-N-(pyridin-4-yl)pyrimidin-4-amine, salt with hydrochloric acid]
0.0029 µM	–	0.26 µM	3.7 µM	0.09 µM	–	CCOc1cc(F)c(Cn2nc(-c3ncc(CN)c(Nc4ccnc(C(F)F)c4)n3)c3ccccc32)c(F)c1 [Example 2-9-6, 5-(aminomethyl)-N-[2-(difluoro-methyl)pyridin-4-yl]-2-[1-(4-ethoxy-2,6-difluorobenzyl)-1H-indazol-3-yl]pyrimidin-4-amine, salt with hydrochloric acid]
0.0067 µM	0.0074 µM	0.17 µM	10 µM	–	–	CCOc1cc(F)c(Cn2nc(-c3ncc(CC4CNC4)c(Nc4ccnc(NC(C)=O)c4)n3)c3ccccc32)c(F)c1 [Example 2-9-7, N-[4-({5-(azetidin-3-ylmethyl)-2-[1-(4-ethoxy-2,6-difluorobenzyl)-1H-indazol-3-yl]pyrimidin-4-yl}amino)pyridin-2-yl]acetamide, salt with hydrochloric acid]
0.014 µM	–	0.22 µM	1.8 µM	0.44 µM	–	CCOc1cc(F)c(Cn2nc(-c3ncc(CC4CNC4)c(Nc4ccnc(C(F)(F)F)c4)n3)c3ccccc32)c(F)c1 [Example 2-9-8]
0.0027 µM	–	0.19 µM	2.3 µM	0.052 µM	–	CCOc1cc(F)c(Cn2nc(-c3ncc(CC4CNC4)c(Nc4ccnc(C(F)F)c4)n3)c3ccccc32)c(F)c1 [Example 2-9-9, 5-(azetidin-3-ylmethyl)-N-[2-(difluorometh-yl)pyridin-4-yl]-2-[1-(4-ethoxy-2,6-difluorobenzyl)-1H-indazol-3-yl]pyrimidin-4-amine, salt with hydrochloric acid]
1.5 µM	–	0.054 µM	1 µM	0.0071 µM	–	CCOc1cc(F)c(Cn2nc(-c3ncc(CCN)c(Nc4ccnc(C(F)F)c4)n3)c3ccccc32)c(F)c1 [Example 2-9-10, 5-(2-aminoethyl)-N-[2-(difluorometh-yl)pyridin-4-yl]-2-[1-(4-ethoxy-2,6-difluorobenzyl)-1H-indazol-3-yl]pyrimidin-4-amine, salt with hydrochloric acid]
0.0028 µM	–	0.11 µM	1.1 µM	0.36 µM	–	CCOc1cc(F)c(Cn2nc(-c3ncc(CCN)c(Nc4ccnc(C(F)(F)F)c4)n3)c3ccccc32)c(F)c1 [Example 2-9-11, 5-(2-aminoethyl)-2-[1-(4-ethoxy-2,6-difluorobenzyl)-1H-indazol-3-yl]-N-[2-(trifluorometh-yl)pyridin-4-yl]pyrimidin-4-amine, salt with hydrochloric acid]
0.16 µM	–	0.15 µM	1 µM	0.0071 µM	–	CCOc1cc(F)c(Cn2nc(-c3ncc(CCN)c(Nc4ccnc(NC(C)=O)c4)n3)c3ccccc32)c(F)c1 [Example 2-9-13, N-[4-({5-(2-aminoethyl)-2-[1-(4-ethoxy-2,6-difluorobenzyl)-1H-indazol-3-yl]pyrimidin-4-yl}amino)pyridin-2-yl]acetamide, salt with hydrochloric acid]
0.011 µM	0.011 µM	0.17 µM	4.3 µM	–	–	CCOc1cc(F)c(Cn2nc(-c3nc4c(c(Nc5ccncc5)n3)CNC4)c3ccccc32)c(F)c1 [Example 2-9-14, 2-[1-(4-ethoxy-2,6-difluorobenzyl)-1H-indazol-3-yl]-N-(pyridin-4-yl)-6,7-dihydro-5H-pyrrolo[3,4-d]pyrimidin-4-amine, salt with hydrochloric acid]
0.0028 µM	3.3 µM	0.34 µM	4 µM	–	–	CCOc1cc(F)c(Cn2nc(-c3nc4c(c(Nc5ccnc(C(F)(F)F)c5)n3)CNC4)c3ccccc32)c(F)c1 [Example 2-9-15, 2-[1-(4-ethoxy-2,6-difluorobenzyl)-1H-indazol-3-yl]-N-[2-(trifluoro-methyl)pyridin-4-yl]-6,7-dihydro-5H-pyrrolo[3,4-d]pyrimidin-4-amine, salt with hydrochloric acid]
0.0067 µM	–	0.17 µM	5.5 µM	0.015 µM	–	CCOc1cc(F)c(Cn2nc(-c3ncc(CC(C)(C)N)c(Nc4ccncc4)n3)c3ccccc32)c(F)c1 [Example 2-9-18, 5-(2-amino-2-methylpropyl)-2-[1-(4-ethoxy-2,6-difluorobenzyl)-1H-indazol-3-yl]-N-(pyridin-4-yl)pyrimidin-4-amine, salt with hydrochloric acid]
3.4 µM	0.011 µM	1.3 µM	> 10 µM	–	–	CCOc1cc(F)c(Cn2nc(-c3ncc(CCCOC)c(Nc4ccncc4C(N)=O)n3)c3ccccc32)c(F)c1 [Example 2-10-1, 4-({2-[1-(4-ethoxy-2,6-difluorobenzyl)-1H-indazol-3-yl]-5-(3-methoxypropyl)pyrimidin-4-yl}amino)nicotinamide]
0.041 µM	0.062 µM	0.23 µM	> 10 µM	–	–	CCOc1cc(F)c(Cn2nc(-c3ncc(CC4CN(CC(F)(F)F)C4)c(Nc4ccncc4)n3)c3ccccc32)c(F)c1 [Example 2-11-1, 2-[1-(4-ethoxy-2,6-difluorobenzyl)-1H-indazol-3-yl]-N-(pyridin-4-yl)-5-{[1-(2,2,2-trifluoroethyl)azetidin-3-yl]methyl}pyrimidin-4-amine]
0.093 µM	0.012 µM	0.1 µM	3 µM	–	–	CCOc1cc(F)c(Cn2nc(-c3ncc4c(n3)N(c3ccncc3)C[C@H]4CNCC(F)(F)F)c3ccccc32)c(F)c1 [Example 2-11-3, N-({2-[1-(4-ethoxy-2,6-difluorobenzyl)-1H-indazol-3-yl]-7-(pyridin-4-yl)-6,7-dihydro-5H-pyrrolo[2,3d]pyr-imidin-5-yl}methyl)-2,2,2-trifluoroethanamine]
0.18 µM	–	0.39 µM	2.1 µM	0.012 µM	–	CCOc1cc(F)c(Cn2nc(-c3nc4c(c(Nc5ccncc5)n3)CCC4)c3ccccc32)c(F)c1 [Example 2-12-2, 2-[1-(4-ethoxy-2,6-difluorobenzyl)-1H-indazol-3-yl]-N-(pyridin-4-yl)-6,7-dihydro-5H-cyclopenta[d]pyrimidin-4-amine]
0.034 µM	0.017 µM	1.4 µM	4.9 µM	–	–	CCOc1cc(F)c(Cn2nc(-c3nc(Nc4ccncc4)cc(C(C)C)n3)c3ccccc32)c(F)c1 [Example 2-12-3, 2-[1-(4-ethoxy-2,6-difluorobenzyl)-1H-indazol-3-yl]-6-(propan-2-yl)-N-(pyridin-4-yl)pyrimidin-4-amine]
0.0089 µM	0.0052 µM	0.42 µM	1.8 µM	–	–	CCOc1cc(F)c(Cn2nc(-c3nc(COC)cc(Nc4ccncc4)n3)c3ccccc32)c(F)c1 [Example 2-12-4, 2-[1-(4-ethoxy-2,6-difluorobenzyl)-1H-indazol-3-yl]-6-(methoxymethyl)-N-(pyridin-4-yl)pyrimidin-4-amine]
